These results are taken from patent publication US20240391870A1 (Arcturus Therapeutics, Inc., priority 2023, published 2024).

One data set is described as follows: Mouse plasma stability. Format: in vitro ADME, CD-1 mouse. The conditions noted are these: 1 uM lipid. Here is the method: Lipid stock solution was prepared by dissolution of the lipid in isopropanol at the concentration of 5 mg/mL. A requisite volume of the lipid-isopropanol solution was then diluted to 100 μM concentration at a total volume of 1.0 mL with in 50:50 (v/v) ethanol/water. Ten microliters of this 100 μM solution was spiked into 1.0 mL of mouse plasma (BioIVT, Cat. No.: MSE00PLNHUNN, CD-1 mouse, anticoagulant: sodium heparin, not filtered) that was pre-warmed to 37° C. and was stirred at 50 rpm with a magnetic stir bar. The starting concentration of lipids in plasma was thus 1 μM. At time points 0, 15, 30, 45, 60 and 120 min, 0.1 mL of the plasma was withdrawn from the reaction mixture and the protein was precipitated by adding 0.9 mL of ice-cold 4:1 (v/v) acetonitrile/methanol with 1 μg/mL of a selected internal standard lipid added. After filtration through a 0.45 micron 96-well filtering plate, the filtrates were analyzed by LC-MS (Thermo Fisher's Vanquish UHPLC—LTQ XL linear ion trap Mass Spectrometer); Waters XBridge BEH Shield RP18 2.5 micron (2.1×100 mm) column with its matching guard column. Mobile phase A was 0.1% formic acid in water, and mobile phase B was 0.1% formic acid in 1:1 (v/v) acetonitrile/methanol. Flow rate was 0.5 ml/min. Elution gradient was: Time 0-1 min: 10% B; 1-6 min: 10%-95% B; 6-8.5 min: 95% B; 8.5-9 min: 95%-10% B; 9-10 min: 10% B. Mass spectrometry was in positive scanning mode from 600-1100 m/z. The peak of the molecular ion of the lipids was integrated in the extracted ion chromatography (XIC) using Xcalibur software (Thermo Fisher). The relative peak area compared to T=0, after normalization by the peak area of the internal standard, was used as the percentage of the lipid remaining at each time point. T1/2 values were calculated using the first-order decay model.

In another data set the test system is factor VII. As to the kind of experiment: Factor VII knock down evaluation (LNP with FVII siRNA). The format is in vivo, Balb/C mice. The conditions noted are these: plasma FVII after 48 h vs saline control; for FVII KD % 0.01 mpk: 0.01 mpk i.v.; for FVII KD % 0.03 mpk: 0.03 mpk i.v. On the procedure:
Lipid formulations comprising a FVII siRNA further described below were evaluated for their knockdown activity using the protocol of this example. In the FVII evaluation, seven to eight week-old, female Balb/C mice were purchased from Charles River Laboratories (Hollister, CA). The mice were held in a pathogen-free environment and all procedures involving the mice were performed in accordance with guidelines established by the Institutional Animal Care and Use Committee (IACUC). Lipid nanoparticles containing factor VII siRNA were administered intravenously at a dosing volume of 10 mL/kg and two dose levels (0.03 and 0.01 mg/kg). After 48 h, the mice were anesthetized with isoflurane and blood was collected retro-orbitally into Microtainer® tubes coated with 0.109 M sodium citrate buffer (BD Biosciences, San Diego, CA) and processed to plasma. Plasma specimens were tested for factor VII levels immediately or stored at −80° C. for later analysis. Measurement of FVII protein in plasma was determined using the colorimetric Biophen VII assay kit (Aniara Diagnostica, USA). Absorbance was measured at 405 nm and a calibration curve was generated using the serially diluted control plasma to determine levels of factor VII in plasma from treated animals, relative to the saline-treated control animals.

A short description of data set [1]: In vivo biodegradability assay (lipid in liver). The conditions noted are these: mouse liver, 48 h.
Another data set concerns hEPO. As to the kind of experiment: hEPO mRNA expression evaluation (hEPO-LNPs). The format is in vivo, Balb/c mice. The note with it: serum hEPO after 6 hr; for EPO exprssn (ng/mL) 0.03 mpk: 0.03 mpk i.v.; for EPO exprssn (ng/mL) 0.1 mpk: 0.1 mpk i.v. On the procedure: Protocol for hEPO mRNA Expression Evaluation
Lipid formulations comprising a hEPO mRNA below were evaluated for their ability to express hEPO in vivo according to the protocol of this example. All animal experiments were conducted using institutionally-approved protocols (IACUC). In this protocol, female Balb/c mice at least 6-8 weeks of age were purchased from Charles River Laboratory. […] After 6 hr, blood was collected with serum separation tubes, and the serum was isolated by centrifugation. Serum hEPO levels were then measured using an ELISA assay (Human Erythropoietin Quantikine IVD ELISA Kit, R&D Systems, Minneapolis, MD).

A short description of data set [2]: Measured pKa in the indicated formulation. The conditions noted are these: for pKa: EPO: measured in EPO formulation; for pKa: FVII: measured in FVII formulation.
Method: Measured pKa values were determined based on the pH measured in the indicated formulation (i.e., EPO or FVII formulation).

Broadly, the pKa is the negative logarithm of the acid dissociation constant. A lower pKa goes with a stronger acid or weaker base.

On to `CC(CC1CCCCC1)C(=O)OCC(COC(=O)C(C)CC1CCCCC1)OC(=O)CCCN(CCCC(=O)OC(COC(=O)C(C)CC1CCCCC1)COC(=O)C(C)CC1CCCCC1)C(=O)SCCCN(C)C` (centres unmarked) [LIPID 17, ((4,4′-((((3-(Dimethylamino)propyl)thio)carbonyl)azanediyl)bis(butanoyl))bis(oxy))bis(propane-2,1,3-triyl)tetrakis(3-cyclohexyl-2-methylpropanoate)], for which, in the data set “Mouse plasma stability” (Table 2, mouse plasma 37 C), the “Percent remaining in mouse plasma after 2 h” value (shortened to “Percent remaining”) came out at 100%. The “FVII KD % 0.01 mpk” value in the data set with factor VII (Table 1) and with factor VII (Table 2) was 55% throughout. The “FVII KD % 0.03 mpk” value with factor VII (Table 1) and with factor VII (Table 2) was 81% in each case. Moreover, the “In vivo degradability (ng/tissue) at 48h 0.03 mpk” value in data set [1] (Table 1) and in data set [1] (Table 2) was “BLOQ” each time. Besides, the “In vivo degradability (ng/tissue) at 48h 0.1 mpk” value in data set [1] (Table 1) and in data set [1] (Table 2) was “BLOQ” in each case. Also, in the data set with hEPO (Table 1), the “EPO exprssn (ng/mL) 0.03 mpk” value is on record as 1082 ng/mL. Also, the entries for the “EPO exprssn (ng/mL) 0.1 mpk” value with hEPO (Table 1) and in the data set with hEPO (Table 2) were 1555 ng/mL and 1082 ng/mL, respectively. In addition, the pKa in data set [2] (EPO formulation) and in data set [2] (FVII formulation) was 6.35 throughout. Also, in data set [2] (Table 1), the “pKa: EPO” value was “(6.35/”. In addition, the “pKa: FVII” value in data set [2] (Table 2) is “(6.35/6.35)”.

For `CCCCCCCCC(=O)OCC(COC(=O)CCCCCCCC)OC(=O)CCC(CCC(=O)OC(COC(=O)CCCCCCCC)COC(=O)CCCCCCCC)OC(=O)CCCN(C)C` [LIPID 5, bis(1,3-bis(Nonanoyloxy)propan-2-yl) 4-((4-(dimethylamino)butanoyl)oxy)heptanedioate], the “Percent remaining” value in the data set “Mouse plasma stability” (Table 1, mouse plasma 37 C) is given as 40%; in the data set “Mouse plasma stability” (Table 2, mouse plasma 37 C) it was 40%. For the same compound, the “FVII KD % 0.01 mpk” value in the data set on factor VII (Table 1) and in the data set with factor VII (Table 2) was 90% each time. In addition, the “FVII KD % 0.03 mpk” value with factor VII (Table 1) and with factor VII (Table 2) was 62% in each case. The “In vivo degradability (ng/tissue) at 48h 0.03 mpk” value in data set [1] (Table 1) and in data set [1] (Table 2) was “BLOQ” throughout. The “In vivo degradability (ng/tissue) at 48h 0.1 mpk” value in data set [1] (Table 1) and in data set [1] (Table 2) was “BLOQ” throughout. The “EPO exprssn (ng/mL) 0.03 mpk” value in the data set on hEPO (Table 1) and in the data set with hEPO (Table 2) was 87 ng/mL throughout. The “EPO exprssn (ng/mL) 0.1 mpk” value in the data set on hEPO (Table 1) and in the data set on hEPO (Table 2) was 533 ng/mL each time. The pKa in data set [2] (EPO formulation) was 6.37; in data set [2] (FVII formulation) it was 6.54. Also, the “pKa: EPO” value in data set [2] (Table 2) is on record as 6.37. Also, the “pKa: FVII” value in data set [2] (Table 2) is 6.54.

`CCCCCCCCC(=O)OCC(COC(=O)CCCCCCCC)OC(=O)CCCC(CCCC(=O)OC(COC(=O)CCCCCCCC)COC(=O)CCCCCCCC)OC(=O)CCCN(C)C.Cl` [LIPID 3, bis(1,3-bis(Nonanoyloxy)propan-2-yl) 5-((4-(dimethylamino)butanoyl)oxy)nonanedioate HCl Salt]: the “Percent remaining” value in “Mouse plasma stability” (Table 1, mouse plasma 37 C) turned out to be 15%; in the data set “Mouse plasma stability” (Table 2, mouse plasma 37 C) it was 15%. The “FVII KD % 0.01 mpk” value with factor VII (Table 1) and in the data set with factor VII (Table 2) was 51% each time. Further, the “FVII KD % 0.03 mpk” value in the data set on factor VII (Table 1) and in the data set on factor VII (Table 2) was 87% each time. Also, the “In vivo degradability (ng/tissue) at 48h 0.03 mpk” value in data set [1] (Table 1) and in data set [1] (Table 2) was “BLOQ” throughout. For the same compound, the “In vivo degradability (ng/tissue) at 48h 0.1 mpk” value in data set [1] (Table 1) and in data set [1] (Table 2) was “BLOQ” each time. In addition, the “EPO exprssn (ng/mL) 0.03 mpk” value in the data set on hEPO (Table 1) and in the data set on hEPO (Table 2) was 191 ng/mL each time. Besides, the “EPO exprssn (ng/mL) 0.1 mpk” value in the data set on hEPO (Table 1) and in the data set on hEPO (Table 2) was 471 ng/mL throughout. For the same compound, the pKa is 6.41 in data set [2] (EPO formulation) and 6.49 in data set [2] (FVII formulation). Besides, in data set [2] (Table 2), the “pKa: EPO” value is listed as 6.41. The “pKa: FVII” value in data set [2] (Table 2) was determined as 6.49.

Take `CCCCCCCCC(=O)OCC(COC(=O)CCCCCCCC)OC(=O)CCCN(CCCC(=O)OC(COC(=O)CCCCCCCC)COC(=O)CCCCCCCC)C(=O)SCCCN(C)C` [LIPID 1, ((4,4′-((((3-(Dimethylamino)propyl)thio)carbonyl)azanediyl)bis(butanoyl))bis(oxy))bis(propane-2,1,3-triyl)tetranonanoate]: the “Percent remaining” value was 14% in “Mouse plasma stability” (Table 1, mouse plasma 37 C) and 14% in the data set “Mouse plasma stability” (Table 2, mouse plasma 37 C). Besides, the “FVII KD % 0.01 mpk” value in the data set on factor VII (Table 1) and in the data set with factor VII (Table 2) was 84% in each case. For the same compound, the “FVII KD % 0.03 mpk” value with factor VII (Table 1) and with factor VII (Table 2) was 100% throughout. Besides, the “In vivo degradability (ng/tissue) at 48h 0.03 mpk” value in data set [1] (Table 1) and in data set [1] (Table 2) was “BLOQ” throughout. Also, the “In vivo degradability (ng/tissue) at 48h 0.1 mpk” value in data set [1] (Table 1) and in data set [1] (Table 2) was “BLOQ” throughout. Further, the “EPO exprssn (ng/mL) 0.03 mpk” value in the data set with hEPO (Table 1) and in the data set with hEPO (Table 2) was 432 ng/mL throughout. The “EPO exprssn (ng/mL) 0.1 mpk” value in the data set with hEPO (Table 1) and with hEPO (Table 2) was 1413 ng/mL throughout. Also, the pKa in data set [2] (EPO formulation) worked out at 6.4; in data set [2] (FVII formulation), 6.64. In data set [2] (Table 2), the “pKa: EPO” value came out at 6.4. Moreover, in data set [2] (Table 2), the “pKa: FVII” value is recorded as 6.64.

As to `CC1CCC(CC(=O)OCC(COC(=O)CC2CCC(C)CC2)OC(=O)CCCN(CCCC(=O)OC(COC(=O)CC2CCC(C)CC2)COC(=O)CC2CCC(C)CC2)C(=O)SCCCN(C)C)CC1` (centres unmarked) [LIPID 15, ((4,4′-((((3-(Dimethylamino)propyl)thio)carbonyl)azanediyl)bis(butanoyl))bis(oxy))bis(propane-2,1,3-triyl)tetrakis(2-(4-methylcyclohexyl)acetate)], the “Percent remaining” value in “Mouse plasma stability” (Table 1, mouse plasma 37 C) turned out to be 256%. Moreover, in the data set “Mouse plasma stability” (Table 2, mouse plasma 37 C), the “Percent remaining” value is recorded as 100%. In addition, in the data set with factor VII (Table 2), the “FVII KD % 0.01 mpk” value is 66.8% and the “FVII KD % 0.03 mpk” value amounted to 89.7%. Besides, in data set [1] (Table 1), the “In vivo degradability (ng/tissue) at 48h 0.03 mpk” value is reported as <340 ng/tissue and the “In vivo degradability (ng/tissue) at 48h 0.1 mpk” value is <340 ng/tissue. For the same compound, in data set [1] (Table 2), the “In vivo degradability (ng/tissue) at 48h 0.03 mpk” value is <340 ng/tissue and the “In vivo degradability (ng/tissue) at 48h 0.1 mpk” value is on record as <340 ng/tissue. For the same compound, the “EPO exprssn (ng/mL) 0.1 mpk” value in the data set on hEPO (Table 2) was 1899 ng/mL. The pKa in data set [2] (EPO formulation) turned out to be 6.57. For the same compound, in data set [2] (FVII formulation), the pKa is 6.45. In data set [2] (Table 2), the “pKa: EPO” value was 6.57 and the “pKa: FVII” value was 6.45.
